The values that follow come from PubChem BioAssay AID328 (DTP/NCI, 2004).

Several values for one entry are separate records, joined by “and”; a condition that tells them apart may be missing. Equal values may be shown once. Inconclusive results and toxic doses are left out. Non-standard residues stand in square brackets, D forms with d. Residues, ends and D or L forms follow the SMILES beside them. *: point of attachment. NMeY = CN[CH](Cc1ccc(O)cc1)C(=O)O; Bn = c1ccc(C*)cc1

The assay deals with BDF1 mice, P388 leukemia ip, median survival T/C. Put plainly: NCI In Vivo Anticancer Drug Screen. Data for tumor model P388 Leukemia (intraperitoneal) in B6D2F1 (BDF1) mice. As to conditions: endpoint: median survival time, higher = longer survival. In outline:
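Vehicle-dosed animals serve as the reference; survival of compound-dosed, tumour-implanted mice is divided by it.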

Where [1] appears, read: dose: 100.0 mg/kg/injection, schedule: Q01DX009 (ip), vehicle: saline with Tween-80.
Where [2] appears, read: dose: 200.0 mg/kg/injection, schedule: Q01DX009 (ip), vehicle: saline with Tween-80.
Where [3] appears, read: dose: 400.0 mg/kg/injection, schedule: Q01DX009 (ip), vehicle: saline with Tween-80.
The mark [4] stands for this setting: dose: 100.0 mg/kg/injection, schedule: Q04DX003 (ip), vehicle: Klucel (hydroxypropylcellulose) (HPC).
[5] abbreviates: dose: 200.0 mg/kg/injection, schedule: Q04DX003 (ip), vehicle: Klucel (hydroxypropylcellulose) (HPC).
Setting [6] is: dose: 25.0 mg/kg/injection, schedule: Q01DX009 (ip), vehicle: saline with Tween-80.
[7] abbreviates: dose: 100.0 mg/kg/injection, schedule: Q04DX003 (ip), vehicle: saline with Tween-80.
[8] abbreviates: dose: 200.0 mg/kg/injection, schedule: Q04DX003 (ip), vehicle: saline with Tween-80.
Where [9] appears, read: dose: 50.0 mg/kg/injection, schedule: Q01DX009 (ip), vehicle: saline with Tween-80.
Where [10] appears, read: dose: 100.0 mg/kg/injection, schedule: Q04DX003 (ip), vehicle: saline.
The mark [11] stands for this setting: dose: 200.0 mg/kg/injection, schedule: Q04DX003 (ip), vehicle: saline.
The mark [12] stands for this setting: dose: 25.0 mg/kg/injection, schedule: Q01DX009 (ip), vehicle: saline.
Where [13] appears, read: dose: 50.0 mg/kg/injection, schedule: Q01DX009 (ip), vehicle: saline.
Setting [14] is: dose: 100.0 mg/kg/injection, schedule: Q01DX009 (ip), vehicle: saline.
[15] abbreviates: dose: 200.0 mg/kg/injection, schedule: Q01DX009 (ip), vehicle: saline.
Setting [16] is: dose: 100.0 mg/kg/injection, schedule: Q01DX001 (ip), vehicle: Klucel (hydroxypropylcellulose) (HPC).
Where [17] appears, read: dose: 400.0 mg/kg/injection, schedule: Q01DX001 (ip), vehicle: Klucel (hydroxypropylcellulose) (HPC).

With `c1cc[c]([Sn]([c]2ccccc2)([c]2ccccc2)[c]2ccccc2)cc1`, the T/C is, setting by setting: under setting [1], 94 % of control; under setting [2], 94 % of control; under setting [3], 97 % of control.

Regarding `O=C(COc1ccc(Cl)c(Cl)c1)N(Cc1ccccc1)Cc1cccnc1`, the T/C reads like this: (dose: 50.0 mg/kg/injection, schedule: Q04DX003 (ip), vehicle: Klucel (hydroxypropylcellulose) (HPC)) 86 % of control; under setting [4], 95 % of control; under setting [5], 104 % of control.

As for `CC(=O)Nc1ccc(S(=O)(=O)Nc2ccc([N+](=O)[O-])cc2)cc1`, the T/C is 104 % of control under setting [6]; 95 % of control (dose: 50.0 mg/kg/injection, schedule: Q01DX009 (ip), vehicle: water); 97 % of control under setting [1]; 97 % of control under setting [2]; 106 % of control under setting [3].

For `COC(=O)c1ccccc1NC(=O)C(Cl)Cl`, the T/C is, setting by setting: (dose: 75.0 mg/kg/injection, schedule: Q04DX003 (ip), vehicle: olive oil, sesame oil, peanut oil) 95 % of control; (dose: 100.0 mg/kg/injection, schedule: Q01DX001 (ip), vehicle: olive oil, sesame oil, peanut oil) 95 % of control; (dose: 150.0 mg/kg/injection, schedule: Q04DX003 (ip), vehicle: olive oil, sesame oil, peanut oil) 95 % of control; (dose: 200.0 mg/kg/injection, schedule: Q01DX001 (ip), vehicle: olive oil, sesame oil, peanut oil) 90 % of control; (dose: 300.0 mg/kg/injection, schedule: Q04DX003 (ip), vehicle: olive oil, sesame oil, peanut oil) 100 % of control; (dose: 400.0 mg/kg/injection, schedule: Q01DX001 (ip), vehicle: olive oil, sesame oil, peanut oil) 100 % of control.

With `CC1=C2C(=C(CBr)OS1(=O)=O)C(=O)c1ccccc12`, the T/C was 104 % of control under setting [7]; 104 % of control under setting [8]; 104 % of control (dose: 400.0 mg/kg/injection, schedule: Q04DX003 (ip), vehicle: saline with Tween-80).

As to `O=C(NC(=O)c1c(F)cccc1F)Nc1ccc2[nH]ccc2c1`, the T/C reads like this: under setting [6], 100 % of control; under setting [9], 100 % of control; under setting [1], 93 % of control.

On to `CCCCCCCCCCCC1CCCC(C)N1` (centres undefined), for which the T/C is, setting by setting: under setting [10], 100 % of control; under setting [11], 95 % of control; (dose: 400.0 mg/kg/injection, schedule: Q04DX003 (ip), vehicle: saline) 91 % of control and 95 % of control.

With `CNC(Cc1ccc(OCc2ccccc2)cc1)C(=O)NC(CC(C)C)C(=O)OC` (centres undefined) (H-[NMeY](Bn)-Leu-OMe; configuration not given here), the T/C runs as follows: under setting [12], 106 % of control; under setting [13], 99 % of control; (dose: 50.0 mg/kg/injection, schedule: Q04DX003 (ip), vehicle: saline) 108 % of control; under setting [14], 92 % of control; under setting [10], 111 % of control; under setting [15], 106 % of control. In addition, the T/C under setting [11] was 106 % of control.

On to `c1ccc(-c2oc3ccc4ccccc4c3c2-c2ccc(OCCN3CCCC3)cc2)cc1`, for which the T/C is 105 % of control (dose: 10.0 mg/kg/injection, schedule: Q01DX009 (ip), vehicle: Klucel (hydroxypropylcellulose) (HPC)); 95 % of control (dose: 20.0 mg/kg/injection, schedule: Q01DX009 (ip), vehicle: Klucel (hydroxypropylcellulose) (HPC)); 105 % of control (dose: 40.0 mg/kg/injection, schedule: Q01DX009 (ip), vehicle: Klucel (hydroxypropylcellulose) (HPC)); 100 % of control (dose: 80.0 mg/kg/injection, schedule: Q01DX009 (ip), vehicle: Klucel (hydroxypropylcellulose) (HPC)).

For `COC(=O)CN(c1c(C)cc(C)c(N)c1C)S(=O)(=O)c1ccccc1`, the T/C by setting is: under setting [16], 91 % of control; under setting [17], 100 % of control.

Consider `COC(=O)CCSC(c1ccccc1)(c1ccccc1)c1ccccc1`, for which, for the setting “dose: 87.0 mg/kg/injection, schedule: Q01DX009 (ip), vehicle: Klucel (hydroxypropylcellulose) (HPC)”, the T/C is 96 % of control.

Consider `NC(=S)N/N=C\c1nccc2ccc(N)cc12`, for which, under setting [9], the T/C is 157 % of control.

Regarding `CSc1sc2ccccc2[n+]1C`, the T/C by setting is: under setting [12], 100 % of control and 104 % of control; under setting [13], 90 % of control and 120 % of control; under setting [14], 86 % of control and 119 % of control.

`COC(=O)c1ccc(OCCOc2ccc(C(C)(C)CC(C)(C)C)cc2)c(N)c1`: the T/C is 95 % of control under setting [16]; 104 % of control (dose: 200.0 mg/kg/injection, schedule: Q01DX001 (ip), vehicle: Klucel (hydroxypropylcellulose) (HPC)); 100 % of control under setting [17].

`CSc1nccc(=O)n1-c1cccc(C(F)(F)F)c1`: the T/C runs as follows: under setting [4], 107 % of control; under setting [5], 107 % of control.

As for `CC1CN1c1cc(O)c(N2CC2C)cc1O` (centres undefined), the T/C reads like this: (dose: 1.32 mg/kg/injection, schedule: Q01DX009 (ip), vehicle: saline with Tween-80) 154 % of control; (dose: 2.0 mg/kg/injection, schedule: Q01DX009 (ip), vehicle: saline with Tween-80) 208 % of control; (dose: 2.2 mg/kg/injection, schedule: Q01DX009 (ip), vehicle: saline with Tween-80) 200 % of control; (dose: 3.0 mg/kg/injection, schedule: Q01DX009 (ip), vehicle: saline with Tween-80) 187 % of control; (dose: 3.3 mg/kg/injection, schedule: Q01DX009 (ip), vehicle: saline with Tween-80) 265 % of control; (dose: 5.0 mg/kg/injection, schedule: Q01DX009 (ip), vehicle: saline with Tween-80) 310 % of control and 204 % of control. In addition, the T/C is 154 % of control (dose: 5.0 mg/kg/injection, schedule: Q04DX003 (ip), vehicle: saline with Tween-80); 231 % of control (dose: 7.5 mg/kg/injection, schedule: Q04DX003 (ip), vehicle: saline with Tween-80); 90 % of control (dose: 10.0 mg/kg/injection, schedule: Q01DX009 (ip), vehicle: saline with Tween-80).

On to `OCCCN1CNC(=S)NC1`, for which the T/C runs as follows: under setting [14], 108 % of control; under setting [15], 108 % of control.

In the case of `O=C(C[n+]1ccccc1)N/N=C/c1ccc(O)c(O)c1`, the T/C under setting [1] is 100 % of control, the T/C under setting [7] is 95 % of control, the T/C under setting [2] is 104 % of control and the T/C under setting [8] was 86 % of control.
